The subject of data set [1] is TGF-β signaling (PAI-1 promoter linked to firefly luciferase in HepG2 cells). The data set can be described thus: Assay 1: PAI-1 promoter luciferase reporter assay in HepG2 cells after exposure to TGF-β. Type of data set: cell-based. The conditions noted are these: for pIC50: Homo sapiens, HepG2 cells, PAI-1 promoter-luciferase, 1 ng/mL rhTGFβ-1, read-out: IC50 value in Assay 1 (inhibition of TGF-β induced firefly luciferase activity). As for the experimental part:
The assay was performed in HepG2 cells stably transfected with the PAI-1 promoter (known to be a strong TGF-β responsive promoter) linked to a luciferase (firefly) reporter gene. The compounds were selected on their ability to inhibit luciferase activity after exposure to TGF-β. In addition cells were transfected with a second luciferase (Renilla) gene which was not driven by a TGF-β responsive promoter and was used as a toxicity control.
(96 well-)microplates are seeded, using a multidrop apparatus, with the stably transfected cell line at a concentration of 35000 cells per well in 200 μl of serum-containing medium. These plates are placed in a cell incubator.
18 to 24 hours later (Day 2), cell-incubation procedure is launched. Cells are incubated with TGF-β and a candidate compound at concentrations in the range 50 nM to 10 μM (final concentration of DMSO 1%). The final concentration of TGF-β (rhTGFβ-1) used in the test is 1 ng/mL. Cells are incubated with a candidate compound 15-30 mins prior to the addition of TGF-β. The final volume of the test reaction is 150 μl. Each well contains only one candidate compound and its effect on the PAI-1 promoter is monitored.
Columns 11 and 12 are employed as controls. Column 11 contains 8 wells in which the cells are incubated in the presence of TGF-β, without a candidate compound. Column 11 is used to determine the ‘reference TGF-β induced firefly luciferase value’ against which values measured in the test wells (to quantify inhibitory activity) may be compared. In wells A12 to D12, cells are grown in medium without TGF-β. The firefly luciferase values obtained from these positions are representive of the ‘basal firefly luciferase activity’. In wells E12 to H12, cells are incubated in the presence of TGF-β and 500 μM CPO (Cyclopentenone, Sigma), a cell toxic compound.
12 to 18 hours later (day 3), the luciferase quantification procedure is launched. The following reactions are performed using reagents obtained from a Dual Luciferase Assay Kit (Promega). Cells are washed and lysed with the addition of 10 μl of passive lysis buffer (Promega). Following agitation (15 to 30 mins), luciferase activities of the plates are read in a dual-injector luminometer (BMG lumistar). For this purpose, 50 μl of luciferase assay reagent and 50 μl of ‘Stop & Glo’ buffer are injected sequentially to quantify the activities of both luciferases. The mean Luciferase activity value obtained in wells A11 to H11 (Column 11, TGF-β only) is considered to represent 100% and values obtained in wells A12 to D12 (cells in medium alone) give a basal level (0%). For each of the compounds tested, a concentration response curve is constructed from which an IC50 value can be determined graphically.
In general terms: Reporter assays use an easily measured gene product as a stand-in for the process of interest.

In general, melting point refers to the temperature of the solid-liquid transition. A word on the pIC50: it is the negative decadic logarithm of the IC50, by convention in mol/L.

pIC50: −log10 of the molar value.

For the compound `O=C1C=CCC1` [CPO, Cyclopentenone, reference compound], in data set [1] (500 μM CPO in the presence of TGF-β, % of those obtained in column 11 (TGF-β only)), the “firefly and renilla luciferase activities (toxicity control)” value is “around 50%”. `Clc1ccc(Nc2cc(-c3c[nH]nc3-c3ccccn3)ccn2)cc1` [Example 1]: the melting point stood at 216 °C. For the same compound, in data set [1], the pIC50 was no less than 5.30. The like results for `Fc1ccc(Nc2cc(-c3c[nH]nc3-c3ccccn3)ccn2)cc1` [Example 3] were, in that order, 200 °C and no less than 5.30. With `c1ccc(-c2n[nH]cc2-c2ccnc(NCc3ccco3)c2)nc1` [Example 4], the melting point worked out at 200 °C. Besides, the pIC50 in data set [1] is no less than 5.30.

Compound `CS(=O)(=O)c1cccc(Nc2cc(-c3c[nH]nc3-c3ccccn3)ccn2)c1` [Example 5] showed a melting point of 146 °C. Further, the pIC50 in data set [1] was no less than 5.30.

Compound `N#Cc1cccc(Nc2cc(-c3c[nH]nc3-c3ccccn3)ccn2)c1` [Example 6] yielded a melting point of 228 °C. The pIC50 in data set [1] is no less than 5.30.

As for `COc1cc(Nc2cc(-c3c[nH]nc3-c3ccccn3)ccn2)ccc1C#N` [Example 7], the melting point was found to be 280 °C. Moreover, the pIC50 in data set [1] is no less than 5.30. The matching figures for `c1ccc(-c2n[nH]cc2-c2ccnc(Nc3cccc(OCCN4CCCCC4)c3)c2)nc1` [Example 8]: 115 °C and no less than 5.30. On to `c1ccc(-c2n[nH]cc2-c2ccnc(Nc3cccc(OCCN4CCCC4)c3)c2)nc1` [Example 9], for which the melting point stood at 141 °C. The pIC50 in data set [1] was no less than 5.30.

The compound `Clc1cccc(Nc2cc(-c3c[nH]nc3-c3ccccn3)ccn2)c1` [Example 10] had a melting point of 205 °C. For the same compound, in data set [1], the pIC50 is no less than 5.30. The matching figures for `Cc1cccc(Nc2cc(-c3c[nH]nc3-c3ccccn3)ccn2)c1` [Example 11, [4-(3-Pyridin-2-yl-1H-pyrazol-4-yl)-pyridin-2-yl]-m-tolyl-amine]: 194 °C and no less than 5.30.

`c1ccc(-c2n[nH]cc2-c2ccnc(Nc3ccc(OCCN4CCCC4)cc3)c2)nc1` [Example 12, [4-(3-Pyridin-2-yl-1H-pyrazol-4-yl)-pyridin-2-yl]-[4-(2-pyrrolidin-1-yl-ethoxy)-phenyl]-amine] returned a melting point of 224 °C. Further, the pIC50 in data set [1] is no less than 5.30.

Compound `COc1ccc(Nc2cc(-c3c[nH]nc3-c3ccccn3)ccn2)cc1OC` [Example 13, (3,4-Dimethoxy-phenyl)-[4-(3-pyridin-2-yl-1H-pyrazol-4-yl)-pyridin-2-yl]-amine] showed a melting point of 210 °C. In data set [1], the pIC50 was no less than 5.30.

In turn, `Cc1cc(Nc2cc(-c3c[nH]nc3-c3ccccn3)ccn2)ccc1Cl` [Example 14, (4-Chloro-3-methyl-phenyl)-[4-(3-pyridin-2-yl-1H-pyrazol-4-yl)-pyridin-2-yl]-amine] yielded a melting point of 212 °C. Besides, the pIC50 in data set [1] was no less than 5.30. The like results for `N#Cc1cc(Nc2cc(-c3c[nH]nc3-c3ccccn3)ccn2)ccc1Cl` [Example 15, 2-Chloro-5-[4-(3-pyridin-2-yl-1H-pyrazol-4-yl)-pyridin-2-ylamino]-benzonitrile] were, in that order, 250 °C and no less than 5.30. The like results for `Oc1ccc(Nc2cc(-c3c[nH]nc3-c3ccccn3)ccn2)cc1` [Example 16, 4-[4-(3-Pyridin-2-yl-1H-pyrazol-4-yl)-pyridin-2-ylamino]-phenol] were, in that order, 268 °C and no less than 5.30. The matching figures for `COc1ccc(Nc2cc(-c3c[nH]nc3-c3ccccn3)ccn2)cc1` [Example 17, (4-Methoxy-phenyl)-[4-(3-pyridin-2-yl-1H-pyrazol-4-yl)-pyridin-2-yl]-amine]: 219 °C and no less than 5.30.

Compound `Cc1ccc(Nc2cc(-c3c[nH]nc3-c3ccccn3)ccn2)cc1` [Example 18, [4-(3-Pyridin-2-yl-1H-pyrazol-4-yl)-pyridin-2-yl]-p-tolyl-amine] had a melting point of 221 °C. Moreover, the pIC50 in data set [1] is no less than 5.30. `FC(F)(F)Oc1cccc(Nc2cc(-c3c[nH]nc3-c3ccccn3)ccn2)c1` [Example 19, [4-(3-Pyridin-2-yl-1H-pyrazol-4-yl)-pyridin-2-yl]-(3-trifluoromethoxy-phenyl)-amine] yielded a melting point of 102.8 °C. Further, the pIC50 in data set [1] is no less than 5.30. The matching figures for `Cc1ccc(Nc2cc(-c3c[nH]nc3-c3ccccn3)ccn2)cc1C` [Example 20, (3,4-Dimethyl-phenyl)-[4-(3-pyridin-2-yl-1H-pyrazol-4-yl)-pyridin-2-yl]-amine]: 220 °C and no less than 5.30. The matching figures for `FC(F)(F)c1ccc(Nc2cc(-c3c[nH]nc3-c3ccccn3)ccn2)cc1` [Example 21, [4-(3-Pyridin-2-yl-1H-pyrazol-4-yl)-pyridin-2-yl]-(4-trifluoromethyl-phenyl)-amine]: 207 °C and no less than 5.30. The like results for `CC(C)Oc1cccc(Nc2cc(-c3c[nH]nc3-c3ccccn3)ccn2)c1` [Example 22, (3-Isopropoxy-phenyl)-[4-(3-pyridin-2-yl-1H-pyrazol-4-yl)-pyridin-2-yl]-amine] were, in that order, 218 °C and no less than 5.30. `CS(=O)(=O)c1ccc(Nc2cc(-c3c[nH]nc3-c3ccccn3)ccn2)cc1` [Example 23, (4-Methanesulfonyl-phenyl)-[4-(3-pyridin-2-yl-1H-pyrazol-4-yl)-pyridin-2-yl]-amine] returned a melting point of 134 °C. Also, the pIC50 in data set [1] is no less than 5.30. The like results for `COc1cc(Nc2cc(-c3c[nH]nc3-c3cccc(C)n3)ccn2)ccc1C#N` [Example 24, 2-Methoxy-4-{4-[3-(6-methyl-pyridin-2-yl)-1H-pyrazol-4-yl]-pyridin-2-ylamino}-benzonitrile] were, in that order, 125 °C and no less than 5.30. The like results for `O=C(c1ccc(Nc2cc(-c3c[nH]nc3-c3ccccn3)ccn2)cc1)N1CCOCC1` [Example 25, Morpholin-4-yl-{4-[4-(3-pyridin-2-yl-1H-pyrazol-4-yl)-pyridin-2-ylamino]-phenyl}methanone] were, in that order, 240 °C and no less than 5.30. The like results for `CN1CCN(C(=O)c2ccc(Nc3cc(-c4c[nH]nc4-c4ccccn4)ccn3)cc2)CC1` [Example 26, (4-Methyl-piperazin-1-yl)-{4-[4-(3-pyridin-2-yl-1H-pyrazol-4-yl)-pyridin-2-ylamino]-phenyl}-methanone] were, in that order, 200 °C and no less than 5.30. As for `c1ccc(-c2n[nH]cc2-c2ccnc(Nc3ccc(OCCN4CCCCC4)cc3)c2)nc1` [Example 27, [4-(2-Piperidin-1-yl-ethoxy)phenyl]-[4-(3-pyridin-2-yl-1H-pyrazol-4-yl)-pyridin-2-yl]-amine], the melting point is 176 °C. In addition, the pIC50 in data set [1] was no less than 5.30. The like results for `Cn1ccnc1COc1cccc(Nc2cc(-c3c[nH]nc3-c3ccccn3)ccn2)c1` [Example 28, [3-(1-Methyl-1H-imidazol-2-ylmethoxy)-phenyl]-[4-(3-pyridin-2-yl-1H-pyrazol-4-yl)-pyridin-2-yl]-amine] were, in that order, 120 °C and no less than 5.30.
